According to US7312219B2, “Heteroaromatic inhibitors of fructose 1,6-bisphosphatase” (Metabasis Therapeutics, Inc., priority 1998, dated 2007):
Where a name gives a salt, the structure may show the parent alone. Read-outs that look alike come from different tables or passages of the source.

Legend:
[1] = Estimation of the Oral Bioavailability of Phosphonic Acids and their Prodrugs; format: in vivo, rat; conditions: fasted rats, oral 10–50 mg/kg, 24 h urinary recovery of phosphonic acid, oral vs intravenous
Method: Phosphonic acids were dissolved in water, and the solution adjusted to neutrality with sodium hydroxide. Prodrugs were dissolved in 10% ethanol/90% polyethlene glycol (mw 400). Compound was administered by oral gavage to 18-hour fasted Sprague-Dawley rats (220–250 g) at doses ranging from 10–50 mg/kg. The rats were subsequently placed in metabolic cages and urine was collected for 24 hours. The quantity of phosphonic acid excreted into urine was determined by HPLC analysis as described in Example G. In a separate study, urinary recovery was determined following intravenous (tail vein) administration of compound (in the case of the prodrugs, the appropriate parent phosphonic acid was administered i.v.).

Fasted Rats = assay: Blood Glucose Lowering Following Intravenous Administration to Fasted Rats; format: in vivo, rat; conditions: 18 h fasted Sprague Dawley rats, 1 hour, relative to saline-treated controls
Method: Inhibitors were disolved in water and the solution adjusted to neutrality with NaOH. Blood samples were obtained from the tail vein of conscious animals just prior to injection and after 1 hour. Blood glucose was measured using a HemoCue Inc. glucose analyzer according to the instructions of the manufacturer.

[2] = Analysis of Drug Levels and Liver Accumulation in Rats; format: in vivo, rat; conditions: fasted rats, 10 mgs/kg i.v., one hour post injection; for concentration at 1 h: Sprague-Dawley, rat, iv, read-out: Plasma Conc.; for Plasma Conc. / concentration at 1 h: plasma
Method: The compound was dissolved in water and the solution adjusted to neutrality with NaOH. One hour post injection rats were anesthetized with halothane and a liver biopsy (approx. 1 g) was taken as well as a blood sample (2 ml) from the posterior vena cava. A heparin flushed syringe and needle were used for blood collection. The liver sample was immediately homogenized in ice-cold 10% perchloric acid (3 ml), centrifuged, and the supernatant neutralized with ⅓rd volume of 3 M KOH/3 M KHCO3. […] Plasma was prepared from the blood sample by centrifugation and extracted by addition of methanol to 60% (v/v). The methanolic extract was clarified by centrifugation and filtration and then analyzed by HPLC as described above.

Fasted Rat = assay: Glucose Lowering Following Oral Administration to the Fasted Rat; format: in vivo; conditions: oral gavage, 18-hour fasted rats, relative to saline controls
Method: Compounds were administered by oral gavage to 18-hour fasted, Sprague Dawley rats (250–300 g, n =3/4/group). Phosphonic acids were prepared in deionized water, and the solution adjusted to neutrality with solidum hydroxide. Prodrugs were dissolved in polyethylene glycol (mw 400). […] The table below indicates the maximum glucose lowering achieved relative to control animals dosed with saline.

[3] = system: Gluconeogenesis in Rat Hepatocytes; assay: Inhibition of Gluconeogenesis in Rat Hepatocytes; format: cell-based; conditions: 10 mM lactate, 1 mM pyruvate, 1 hour incubation, read-out: IC50 Glucose Production
Method: Hepatocytes were prepared from overnight fasted Sprague-Dawley rats (250–300 g) according to the procedure of Berry and Friend (Berry, M. N., Friend, D. S., 1969, J. Cell. Biol. 43, 506–520) as modified by Groen (Groen, A. K., Sips, H. J., Vervoorn, R. C., Tager, J. M. , 1982, Eur. J. Biochem. 122, 87–93). Hepatocytes (75 mg wet weight/ml) were incubated in 1 ml Krebs-bicarbonate buffer containing 10 mM Lactate, 1 mM pyruvate, 1 mg/ml BSA, and test compound concentrations from 1 to 500 μM. Incubations were carried out in a 95% oxygen, 5% carbon dioxide atmosphere in closed, 50-ml Falcon tubes submerged in a rapidly shaking water bath (37° C.). After 1 hour, an aliquot (0.25 ml) was removed, transferred to an Eppendorf tube and centrifuged. 50 μl of supernatant was then assayed for glucose content using a Sigma Glucose Oxidase kit as per the manufacturer's instructions.

[4] = Oral Absorption Determinations of Prodrugs in the Rat; conditions: normal fed rats; for % excreted i.p.: 30 mg/kg intraperitoneal; for % excreted i.p. / % excreted p.o.: parent compound 3.1 in 24 h urine; for % excreted p.o.: 30 mg/kg oral gavage; for % absorption: 30 mg/kg, urinary excretion oral vs intraperitoneal
[5] = Rattus norvegicus, iv, 10 mg/kg i.v.

For “2-Methyl-5-isobutyl-4-{2-[5-bis(thiobenzoylmethyl)phosphono]furanyl}thiazole [Compound 19.9]”, the “% Oral bioavailability” value [1] was 18.5%.
In the case of Cc1nc(-c2ccc(P(=O)(O)O)o2)c(CC(C)C)s1 [Compound 3.2, 2-Methyl-5-isobutyl4-[2-(5-phosphono)furanyl]thiazole], the inhibition in vivo at 30 mg/kg (Fasted Rats; Rattus norvegicus, iv, 30 mg/kg i.v.) is reported as 55%.
With CCc1sc(N)nc1-c1ccc(P(=O)(O)O)o1 [Compound 3.21, 2-Amino-5-ethyl-4-[2-(5-phosphono)furanyl]thiazole] the “Plasma Conc.” value [2] was 25 ± 1 µM.
CCOC(=O)c1sc(N)nc1-c1ccc(P(=O)(O)O)o1 [Compound 3.25, 2-Amino-5-ethoxycarbonyl-4-[2-(5-phosphono)furanyl]thiazole] gave an inhibition in vivo at 10 mg/kg (Fasted Rats; [5]) of 76%.
For Nc1nc(-c2ccc(P(=O)(O)O)o2)c(C2CC2)s1 [Compound 3.27, 2-Amino-5-cyclopropyl-4-[2-(5-phosphono)furanyl]thiazole], the “% Glucose Lowering (maximum)” value (Fasted Rat; dose 60 mg/kg, time point 3 h) was 61% and the “% Oral bioavailability” value [1] was 32%.
In the case of CCCSc1sc(N)nc1-c1ccc(P(=O)(O)O)o1 [Compound 3.58, 2-Amino-5-propylthio-4-[2-(5-phosphono)furanyl]thiazole hydrobromide], the IC50 ([3]; Hepatocyte) is reported as 1200 nM and the inhibition in vivo at 10 mg/kg (Fasted Rats; [5]) is reported as 82%.
For CSc1[se]c(N)nc1-c1ccc(P(=O)(O)O)o1 [Compound 3.71, 2-Amino-5-methylthio-4-[2-(5-phosphono)furanyl]selenazole], the “i.v. Glucose Lowering, %” value (Fasted Rats; 10 mg/kg i.v.) was 72%.
For CC(C)Cc1sc(Br)nc1-c1ccc(P(=O)(O)O)o1 [Compound 5.1, 2-bromo-5-isobutyl-4-[2-(5-phosphono)furanyl]thiazole], the “Liver Conc.” value [2] was 6.7 ± 0.7 nmol/g and the “Plasma Conc.” value [2] was 100 ± 5.7 µM.
With Nc1nc(-c2ccc(P(=O)(O)O)o2)c(-c2cccs2)s1 [Compound 6.3] the inhibition in vivo at 10 mg/kg (Fasted Rats; [5]) was 24%.
In the case of CCCc1oc(N)nc1-c1ccc(P(=O)(O)O)o1 [Compound 10.2, 2-Amino-5-propyl-4-[2-(5-phosphono)furanyl]oxazole], the concentration at 1 h [2] is reported as 22 ± 1.5 µM, the “% Glucose Lowering (maximum)” value (Fasted Rat; dose 90 mg/kg, time point 3 h) is reported as 36% and the bioavailability ([1]; Sprague-Dawley, rat, urine) is reported as 22%.
In the case of CCCSc1oc(N)nc1-c1ccc(P(=O)(O)O)o1 [Compound 10.43, 2-Amino-5-propylthio-4-[2-(5-phosphono)furanyl]oxazole], the inhibition in vivo at 10 mg/kg (Fasted Rats; [5]) is reported as 61%.
Work on CCc1cc(CC)c(-c2ccc(P(=O)(O)O)o2)nc1N [Compound 15.4, 2-amino-3,5-diethyl-6-[2-(5-phosphono)furanyl]pyridine] yielded a melting point of 217 to 218 °C.
For Nc1ccc(C2CC2)c(-c2ccc(P(=O)(O)O)o2)n1 [Compound 15.20, 2-Amino-5-cyclopropyl-6-[2-(5-phosphono)furanyl]pyridine], the inhibition in vivo at 10 mg/kg (Fasted Rats; [5]) was 24%, the concentration at 1 h [2] was 66.3 ± 3.9 µM and the “Liver Conc.” value [2] was 13.1 ± 2.3 nmol/g.
For Nc1nc(C(=O)OCP(=O)(O)O)c(Br)s1 [Compound 18.2, 2-amino-5-bromo-4-phosphonomethoxycarbonylthiazole], the inhibition in vivo at 10 mg/kg (Fasted Rats; [5]) was 80%.
Work on CCc1sc(N)nc1C(=O)OCP(=O)(O)O [Compound 18.3, 2-amino-5-ethyl-4-phosphonomethoxycarbonylthiazole] yielded an inhibition in vivo at 10 mg/kg (Fasted Rats; [5]) of 75%.
With Cc1nc(-c2ccc(P3(=O)OCCC(c4ccncc4)O3)o2)c(CC(C)C)s1 (stereo not shown) [Compound 19.17, 5-Isobutyl-2-methyl-4-{2-[5-(1-(4-pyridyl)-1,3-propyl)phosphono]furanyl}-thiazole] the “% Oral bioavailability” value [1] was 16.2%.
With CC(C)Cc1sc(N)nc1-c1ccc(P2(=O)OCCC(c3ccncc3)O2)o1 (stereo not shown) [Compound 19.18, 2-Amino-5-isobutyl-4-[2-{5-[1-(4-pyridyl)-propan-1,3-yl]phosphonol}furanyl)-thiazole] the IC50 [3] was 10000 nM.
For CC(C)Cc1sc(N)nc1-c1ccc(P2(=O)OCCC(c3ccc(F)c(Br)c3)O2)o1 (stereo not shown) [Compound 19.42, 2-Amino-5-isobutyl-4-{2-[5-(1-(4-fluoro-3-bromophenyl)-1,3-propyl)phosphono]furanyl}thiazole], the “% Glucose Lowering (maximum)” value (Fasted Rat; dose 30 mg/kg, time point 3 h) was 26%, the “% Oral bioavailability” value [1] was 10% and the “% excreted i.p.” value [4] was 15.4%. The “% excreted p.o.” value [4] was 8.1% and the “% absorption” value [4] was 52%.
With CC(C)Cc1sc(N)nc1-c1ccc(P2(=O)OCCC(c3cccc(Cl)c3)O2)o1 (stereo not shown) [Compound 19.46, 2-Amino-5-isobutyl-4-{2-[5-(1-(3-chlorophenyl)-1,3-propyl)phosphono]furanyl}thiazole] the “% Glucose Lowering (maximum)” value (Fasted Rat; dose 30 mg/kg, time point 2 h) was 53%.
In the case of CC(C)Cc1sc(N)nc1-c1ccc(P2(=O)OCCC(c3cc(Cl)cc(Cl)c3)O2)o1 (stereo not shown) [Compound 19.48, 2-Amino-5-isobutyl-4-{2-[5-(1-(3,5-dichlorophenyl)-1,3-propyl)phosphono]furanyl}thiazole], the IC50 [3] is reported as 6500 nM, the “% Glucose Lowering (maximum)” value (Fasted Rat; dose 30 mg/kg, time point 2 h) is reported as 63% and the “% Oral bioavailability” value [1] is reported as 12%. The “% excreted i.p.” value [4] was 11.3%, the “% excreted p.o.” value [4] was 11.6% and the “% absorption” value [4] was 100%.
For Cc1nc(-c2ccc(P(=O)(OCOC(=O)C(C)(C)C)OCOC(=O)C(C)(C)C)o2)cs1 [Compound 20.1, 2-methyl-4-[2-(5-dipivaloyloxymethylphosphono)furanyl]-thiazole], the “% Oral bioavailability” value [1] was 46%.
In the case of Cc1nc(-c2ccc(P(=O)(OCOC(=O)C(C)(C)C)OCOC(=O)C(C)(C)C)o2)c(CC(C)C)s1 [Compound 20.3, 2-Methyl-5-isobutyl-4-{2-[5-(dipivaloyloxymethyl)phosphono]furanyl}thiazole], the “% Oral bioavailability” value [1] is reported as 17.5%.
With CC(C)Cc1sc(N)nc1-c1ccc(P(=O)(OCOC(=O)C(C)(C)C)OCOC(=O)C(C)(C)C)o1 [Compound 20.4, 2-Amino-5-isobutyl-4-{2-[5-(dipivaloyloxymethyl)phosphono]furanyl}thiazole] the “% Oral bioavailability” value [1] was 11%.
With CCOC(=O)OCOP(=O)(OCOC(=O)OCC)c1ccc(-c2nc(N)sc2CC(C)C)o1 [Compound 20.9, 2-Amino-5-isobutyl-4-{-2-[5-bis(ethoxycarbonyloxymethyl)phosphono]-furanyl}thiazole] the IC50 [3] was 2200 nM, the “% Glucose Lowering (maximum)” value (Fasted Rat; dose 90 mg/kg, time point 3 h) was 67% and the “% Oral bioavailability” value [1] was 17.4%.
In the case of COC(=O)C(C)NP(=O)(Oc1ccccc1)c1ccc(-c2nc(N)sc2CC(C)C)o1 (stereo not shown) [Compound 31.6, 2-amino-5-isobutyl-4-{2-[5-(O-phenyl-N-(1-methoxycarbonyl)ethyl)phosphonamido]furanyl}thiazole], the IC50 [3] is reported as 2300 nM, the “% Glucose Lowering (maximum)” value (Fasted Rat; dose 10 mg/kg, time point 3 h) is reported as 60% and the “% Oral bioavailability” value [1] is reported as 19%.
With CCOC(=O)CNP(=O)(Oc1ccccc1)c1ccc(-c2nc(N)sc2CC(C)C)o1 (stereo not shown) [Compound 31.8, 2-amino-5-isobutyl-4-{2-[5-(O-phenyl-N-ethoxycarbonylmethyl)phosphonamido]furanyl}thiazole] the IC50 [3] was 3000 nM and the “% Oral bioavailability” value [1] was 14%.
With Cc1ccc(OCP(=O)(O)O)c2nc(N)sc12 [Compound 35.3, 2-Amino-4-phosphonomethoxy-7-methylbenzothiazole] the inhibition in vivo at 10 mg/kg (Fasted Rats; [5]) was 65%.
In the case of CCc1c(SC#N)cc(OCP(=O)(O)O)c2nc(N)sc12 [Compound 41.1, 2-amino-7-ethyl-6-thiocyano-4-phosphonomethoxybenzothiazole], the inhibition in vivo at 10 mg/kg (Fasted Rats; [5]) is reported as 80%.
